Source: PMC9496321, “6-Furopyridine Hexamethylene Amiloride Is a Non-Selective P2X7 Receptor Antagonist” (Biomolecules, 2022)

Assays:
hP2X4 = biological target: T1, hP2X4 (Homo sapiens, UniProt Q99571); test: Fura-2AM Ca2+ response assay in HEK-hP2X4 cells; format: cell-based
T1 construct: expressed in transfected cells; host or cells: HEK293 cells, transient transfection
T1 sequence (Q99571 1-388): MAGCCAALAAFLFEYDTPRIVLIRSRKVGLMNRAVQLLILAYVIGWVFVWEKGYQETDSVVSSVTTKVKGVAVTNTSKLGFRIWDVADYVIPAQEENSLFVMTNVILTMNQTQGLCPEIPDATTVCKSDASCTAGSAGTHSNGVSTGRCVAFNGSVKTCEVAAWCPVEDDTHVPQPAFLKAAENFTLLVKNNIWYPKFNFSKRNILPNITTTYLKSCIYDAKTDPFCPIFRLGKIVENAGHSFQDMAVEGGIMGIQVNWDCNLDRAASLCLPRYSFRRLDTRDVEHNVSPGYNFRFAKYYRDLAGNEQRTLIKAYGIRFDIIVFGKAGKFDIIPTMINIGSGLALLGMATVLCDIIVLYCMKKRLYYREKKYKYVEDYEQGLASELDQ
Protocol: HEK293 cells were plated at 3.5 × 10^5 cells/well in 2 mL of complete DMEM/F12 medium and incubated (37 °C, 95% air/5% CO2, overnight). Cells were transfected with mP2X7-GFP (HEK-mP2X7), cP2X7-GFP (HEK-cP2X7) or hP2X4-EmGFP (HEK-hP2X4) plasmids, or mock transfected with an equivalent volume of sterile Milli-Q water (Merck Millipore, Burlington, NJ, USA), using Lipofectamine 3000 according to the manufacturer’s instructions. Cells were used for assays 48 h post-transfection. To determine transfection efficiency, cells were washed twice with D-PBS and data collected with an LSR Fortessa X-20 flow cytometer (BD Biosciences). The proportion of GFP positive cells was determined using FlowJo software v8.7.1 (BD Biosciences).
Ca^2+ response assays were conducted as described. […] Fura-2 fluorescence at 510 nm was measured every 5 s using a FlexStation 3 (Molecular Devices, San Jose, CA, USA). […] Relative changes in intracellular Ca^2+ were calculated using the ratio of Fura-2AM fluorescence at 510 nm following excitation at 340 nm and 380 nm (F340nm/380nm). […] To determine relative P2X-mediated Ca^2+ responses, the area under the curve from 100 to 180 s was calculated with GraphPad Prism. To determine P2Y-mediated Ca^2+ responses the area under the curve from 30 to 100 s was calculated. In both cases, ATP-induced responses were calculated by subtracting the corresponding basal response. […]

NHE1 = test system: NHE1; set-up: method as in PMID 33804289; settings: cited from earlier work
P2X7 = biological target: T2, P2X7 (Homo sapiens, UniProt Q99572); test: ATP-induced YO-PRO-1 uptake into human T cells (PBMCs); format: cell-based; set-up: Human peripheral blood mononuclear cells (PBMCs) were pre-incubated with DMSO (vehicle) or 30 μM 6-FPHMA; endogenous in cells; host or cells: cryopreserved human PBMCs (CD3+, CD4+, CD8+ T cells), four donors; settings: 30 μM compound, 1 mM ATP
T2 sequence (Q99572 1-595): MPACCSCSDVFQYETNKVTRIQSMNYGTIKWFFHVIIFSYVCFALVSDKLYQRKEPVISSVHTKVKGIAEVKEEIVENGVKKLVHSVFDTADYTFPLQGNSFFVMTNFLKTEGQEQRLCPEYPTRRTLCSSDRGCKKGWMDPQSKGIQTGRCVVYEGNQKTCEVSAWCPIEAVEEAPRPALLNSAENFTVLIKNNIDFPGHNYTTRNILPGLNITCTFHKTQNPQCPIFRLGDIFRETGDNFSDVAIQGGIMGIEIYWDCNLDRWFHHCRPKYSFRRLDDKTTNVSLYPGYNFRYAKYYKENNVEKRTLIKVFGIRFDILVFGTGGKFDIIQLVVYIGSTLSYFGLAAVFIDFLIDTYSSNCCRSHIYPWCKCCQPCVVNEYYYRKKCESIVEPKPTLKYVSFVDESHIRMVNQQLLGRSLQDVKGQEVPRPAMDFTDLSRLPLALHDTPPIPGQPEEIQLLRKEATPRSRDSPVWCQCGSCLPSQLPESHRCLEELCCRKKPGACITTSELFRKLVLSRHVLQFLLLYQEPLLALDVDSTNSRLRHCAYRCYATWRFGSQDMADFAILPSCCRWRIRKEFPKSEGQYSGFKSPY
Protocol: ATP-mediated uptake assays were conducted as described with either ethidium bromide or YO-PRO-1 iodide. Briefly, RPMI8226, HEK-hP2X7, HEK-mP2X7, HEK-cP2X7 or cryopreserved human peripheral blood mononuclear cells (PBMCs) were washed thrice with LDM (300× g, 5 min), resuspended in LDM and 1 × 10^6 cells were added to individual tubes. Cells were pre-incubated in the absence of compound (37 °C, 5 min) or in the presence of compound or vehicle (DMSO) (37 °C, 15 min) as indicated. […] An equal volume of ice-cold Mg^2+ stop solution was added and cells centrifuged (300× g, 5 min). Cells were washed twice in LDM (300× g, 5 min), resuspended and data were collected with an LSR Fortessa X-20 flow cytometer. MFI of ethidium^+ or YO-PRO-1^2+ was determined using FlowJo.

N=C(N)NC(=O)c1nc(-c2cc3cnccc3o2)c(N2CCCCCC2)nc1N [6-FPHMA, 6-furopyridine-substituted 5-(N,N-hexamethylene) amiloride]
inhibition at 100 µM (hP2X4): 100% | IC50 (hP2X4; read-out: IC50, hP2X4-mediated Ca2+ flux): 3.95 ± 0.19 µM | inhibition of NHE1 (NHE1): inhibit | reduction of ATP-induced YO-PRO-1 uptake into CD3+ T cells (P2X7): 62 ± 3% | reduction of ATP-induced YO-PRO-1 uptake into CD4+ T cells (P2X7): 62 ± 3% | reduction of ATP-induced YO-PRO-1 uptake into CD8+ T cells (P2X7): 62 ± 4%
